Counter-ions that a name gives are not always drawn.
Columns and labels:
[1] = system: conscious SH rats; assay: Antihypertensive effect on conscious, spontaneously hypertensive (SH) rats after oral administration; type: in vivo, rat
From the text: The systolic blood pressure was indirectly measured by the tail-cuff method. The compounds to be tested were introduced orally (p.o.) to the animals. The blood pressure measurements were made by using a 5-channel automatized equipment.

[2] = system: SH rats; assay: Subacute treatment of SH rats; type: in vivo, rat
Description: (§1) The systolic blood pressure and heart rate of the animals were indirectly measured by using the tail-cuff method by means of a 5- channel automatized equipment.
The subacute experiments were carried out on SH rats by administering daily twice a 3 mg/kg intraperitoneal dose for 14 days.

[3] = system: conscious renal hypertensive rats; assay: Antihypertensive effect on conscious renal hypertensive rats after acute oral treatment; type: in vivo, rat
From the text: (§2) These experiments were accomplished on conscious spontaneously hypertensive (SH) and renally hypertensive rats.
as §1

[4] = Acute toxicity in rats; conditions: rat, in vivo
From the text: (§3) Male and female CFY rats and mice were used.

[5] = Acute toxicity in mice; conditions: mouse, in vivo
From the text: as §3

[6] = system: pre- and postsynaptic alpha receptors; assay: Action on the pre- and postsynaptic adrenergic alpha receptors on the stimulated mouse vas deferens; type: cell-based
Description: The method of Hughes et al. [Brit. J. Phamacol. 51, pp. 139-140P (1975)] was used. The preparations suspended in a modified Krebs solution at 31° C. were excited by the field stimulation method [rectangular paired impulses with 1 msec interval, supramaximal potential (70 to 75 V=8 to 9 V/cm) and 100 msec impulse interval, pairs repeated in each 10 sec]. After stimulation, norepinephrine (NE) was dropped into the organ bath and a dose-response curve was taken up. Thus, the effect of both the endogenous norepinephrine liberated by stimulation and the exogenous norepinephrine could be studied before and after adding the substance to be tested.

[7] = system: pressor (blood pressure increasing) effect of epinephrine; assay: Inhibition of the pressor effect of epinephrine; conditions: in vivo
[8] = molecular target: T1, potential-mediated calcium channel (Rattus norvegicus, UniProt P22002); assay: Calcium-antagonism on isolated portal vein: potential-mediated calcium channel; type: cell-based; conditions: rat portal vein, 80 millimoles KCl, 37° C.; read-out: Inhibition of the calcium channel, potential-mediated, IC50
T1 construct: from tissue; host or cells: isolated rat portal vein
Description: (§4) The calcium-antagonism of the compounds of the invention was studied on an isolated vessel preparation based on the work of M. Fiol de Cuneo et al. [Arch. Int. Pharmacodyn.
(§5) Male CFY rats with a body-weight of 150 to 200 g were bled by decapitation and the portal vein was immediately prepared starting from the hepatic portal. The vessel was longitudinally incised, bound to a transducer registering the contractions and incubated under a tension of 1 g at 37° C. in a calcium-free Krebs-Ringer bicarbonate solution aerated with carbogen. After an equilibration lasting for 30 minutes, the functioning of the receptor-mediated and the K^+ -depolarisation-mediated calcium channels, respectively, were investigated.
For investigating the potential-mediated calcium channel, the vein placed in the calcium-free Krebs-Ringer solution was washed by adding and then by removing 80 millimoles of potassium chloride while maintaining the isotania until no contraction appeared on repeatedly adding potassium chloride.
(§6) All measurements were carried out at 37° C. while bubbling through carbogen.

[9] = system: postsynaptic alpha1 receptor; assay: Kinetic analysis on rabbit aorta strip preparation: postsynaptic alpha1 receptor antagonism; type: cell-based
Description: Male rabbits with a body-weight of 3 to 3.5 kg were used for these experiments. […] A dose response curve was plotted by using norepinephrine and a dose selected from the steepest interval of the curve was added repeatedly to the bath until obtaining equal responses. Then, the compound to be tested was added and after 5 minutes, the dose series of norepinephrine was repeated. The extent of the inhibition was expressed as percentage.

[10] = system: anaesthetized cats; assay: Hypotensive and heart rate effects on anaesthetized cats after intravenous or intraduodenal administration; type: in vivo, cat
Description: The cats were anaesthetized by intraperitoneally administering 35 mg/kg of sodium pentobarbital while promoting the spontaneous respiration by the introduction of a trachea cannula. On one side, the femoral vessels are cannulated. The cannula introduced to the femoral vein was used for the intravenous administration of the compounds to be tested. The arterial cannula was connected with a Hellige electromanometer by using a Statham P 23 Db transducer for measuring the mean arterial pressure. The heart rate was continuously registered by means of a cardiotachometer triggered by the pulse wave sign of the electromanometer.
In an other series of these experiments, the compound to be tested was administered through a duodenal tube. The compound of Example 3 (or 12) was used in intravenous doses of 0.5, 1.0 and 5.0 mg/kg as well as in intraduodenal doses of 1.25, 5.0 and 10.0 mg/kg.

[11] = system: renal artery; assay: Renal arterial vascular resistance in anaesthetized dogs; type: in vivo, Beagle dog
Description: Beagle dogs of both sexes were anaesthetized by the intravenous administration of 40 mg/kg of sodium pentobarbital. A cannula was introduced to the femoral artery and vein each on one side for the intravenous administration of the compounds to be tested as well as for measuring the blood pressure.
In an other series of these experiments, the substances were administered through a duodenal tube. Similarly to the experiments carried out on cats, the systemic arterial blood pressure was measured by using an electromanometer and the cardiotachometer was triggered by the heart rate wave sign.
The renal artery on one side was exposed retroperitoneally and fitted with an electromagnetic flow-meter head for measuring the blood flow of the renal arterial vascular bed and for determining the local vascular resistance.

[12] = system: conscious SH rats; assay: Antihypertensive effect on conscious SH rats after acute oral treatment; type: in vivo, rat
From the text: as §2, §1

[13] = system: adrenergic receptor-mediated calcium channel; assay: Calcium-antagonism on isolated portal vein: adrenergic receptor-mediated calcium channel; type: cell-based; conditions: rat portal vein, 1×10^-5 mole norepinephrine, 37° C.; read-out: Inhibition of the calcium channel, adrenergic receptor-mediated, IC50
Description: as §4, §5, §6

[14] = ip, female, i.p., read-out: LD50 i.p.
[15] = ip, male, i.p., read-out: LD50 i.p.
[16] = po, female, p.o., read-out: LD50 p.o.
[17] = po, male, p.o., read-out: LD50 p.o.

T1 sequence (P22002 whole entry): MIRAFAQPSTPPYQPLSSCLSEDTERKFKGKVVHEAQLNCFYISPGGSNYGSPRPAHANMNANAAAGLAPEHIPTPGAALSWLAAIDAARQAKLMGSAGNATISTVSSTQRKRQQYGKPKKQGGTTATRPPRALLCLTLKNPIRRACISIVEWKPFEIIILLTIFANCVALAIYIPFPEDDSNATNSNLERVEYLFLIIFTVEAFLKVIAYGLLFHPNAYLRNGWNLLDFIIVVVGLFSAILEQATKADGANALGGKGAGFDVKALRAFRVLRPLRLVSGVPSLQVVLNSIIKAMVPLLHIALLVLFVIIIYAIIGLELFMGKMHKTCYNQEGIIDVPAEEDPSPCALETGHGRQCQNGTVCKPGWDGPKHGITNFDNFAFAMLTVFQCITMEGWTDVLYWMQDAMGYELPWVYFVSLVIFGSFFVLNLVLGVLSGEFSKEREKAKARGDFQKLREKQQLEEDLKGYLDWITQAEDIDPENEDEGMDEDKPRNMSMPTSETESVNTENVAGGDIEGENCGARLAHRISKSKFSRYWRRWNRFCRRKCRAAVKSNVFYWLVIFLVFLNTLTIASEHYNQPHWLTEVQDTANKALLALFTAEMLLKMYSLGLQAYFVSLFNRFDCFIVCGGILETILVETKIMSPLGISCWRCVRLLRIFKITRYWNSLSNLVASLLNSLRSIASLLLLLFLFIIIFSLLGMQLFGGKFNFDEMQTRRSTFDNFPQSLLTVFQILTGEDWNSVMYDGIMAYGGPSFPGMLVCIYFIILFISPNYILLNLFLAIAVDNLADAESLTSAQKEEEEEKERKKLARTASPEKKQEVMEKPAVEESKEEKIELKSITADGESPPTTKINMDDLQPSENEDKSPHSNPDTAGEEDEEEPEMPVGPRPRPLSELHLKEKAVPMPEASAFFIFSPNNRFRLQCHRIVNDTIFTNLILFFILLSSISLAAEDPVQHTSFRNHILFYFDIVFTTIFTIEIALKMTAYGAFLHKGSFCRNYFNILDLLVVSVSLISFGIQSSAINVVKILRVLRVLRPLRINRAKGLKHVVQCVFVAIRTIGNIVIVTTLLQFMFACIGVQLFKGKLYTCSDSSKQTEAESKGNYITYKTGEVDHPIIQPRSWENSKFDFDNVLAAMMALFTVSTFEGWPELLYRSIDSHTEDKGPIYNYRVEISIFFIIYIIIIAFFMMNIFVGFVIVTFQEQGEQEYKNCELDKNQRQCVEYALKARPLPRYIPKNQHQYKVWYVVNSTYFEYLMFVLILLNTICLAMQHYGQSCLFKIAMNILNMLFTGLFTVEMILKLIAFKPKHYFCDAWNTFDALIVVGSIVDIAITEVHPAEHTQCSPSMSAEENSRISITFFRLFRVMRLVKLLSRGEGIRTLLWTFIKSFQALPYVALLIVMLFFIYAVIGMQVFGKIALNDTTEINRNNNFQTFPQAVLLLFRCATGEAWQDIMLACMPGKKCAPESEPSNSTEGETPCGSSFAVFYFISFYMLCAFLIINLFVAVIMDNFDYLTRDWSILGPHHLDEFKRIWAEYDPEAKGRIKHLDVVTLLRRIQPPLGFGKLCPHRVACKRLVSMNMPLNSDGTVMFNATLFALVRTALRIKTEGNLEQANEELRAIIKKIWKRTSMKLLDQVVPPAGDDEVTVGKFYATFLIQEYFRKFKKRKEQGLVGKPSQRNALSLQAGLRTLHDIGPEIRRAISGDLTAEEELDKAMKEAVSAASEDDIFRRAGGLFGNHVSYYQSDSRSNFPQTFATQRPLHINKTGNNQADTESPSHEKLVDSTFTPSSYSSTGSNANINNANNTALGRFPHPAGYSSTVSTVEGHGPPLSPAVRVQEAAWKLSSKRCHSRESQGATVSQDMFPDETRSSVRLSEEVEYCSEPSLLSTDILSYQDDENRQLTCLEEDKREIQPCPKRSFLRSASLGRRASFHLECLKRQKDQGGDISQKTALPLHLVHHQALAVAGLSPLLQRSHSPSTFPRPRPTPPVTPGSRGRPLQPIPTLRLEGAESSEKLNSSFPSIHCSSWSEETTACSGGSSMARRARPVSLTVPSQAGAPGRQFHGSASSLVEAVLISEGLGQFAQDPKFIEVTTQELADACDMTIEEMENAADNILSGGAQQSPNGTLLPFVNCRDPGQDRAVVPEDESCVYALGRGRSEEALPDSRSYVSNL
T1 sequence (P54290 25-944 partner limits assumed): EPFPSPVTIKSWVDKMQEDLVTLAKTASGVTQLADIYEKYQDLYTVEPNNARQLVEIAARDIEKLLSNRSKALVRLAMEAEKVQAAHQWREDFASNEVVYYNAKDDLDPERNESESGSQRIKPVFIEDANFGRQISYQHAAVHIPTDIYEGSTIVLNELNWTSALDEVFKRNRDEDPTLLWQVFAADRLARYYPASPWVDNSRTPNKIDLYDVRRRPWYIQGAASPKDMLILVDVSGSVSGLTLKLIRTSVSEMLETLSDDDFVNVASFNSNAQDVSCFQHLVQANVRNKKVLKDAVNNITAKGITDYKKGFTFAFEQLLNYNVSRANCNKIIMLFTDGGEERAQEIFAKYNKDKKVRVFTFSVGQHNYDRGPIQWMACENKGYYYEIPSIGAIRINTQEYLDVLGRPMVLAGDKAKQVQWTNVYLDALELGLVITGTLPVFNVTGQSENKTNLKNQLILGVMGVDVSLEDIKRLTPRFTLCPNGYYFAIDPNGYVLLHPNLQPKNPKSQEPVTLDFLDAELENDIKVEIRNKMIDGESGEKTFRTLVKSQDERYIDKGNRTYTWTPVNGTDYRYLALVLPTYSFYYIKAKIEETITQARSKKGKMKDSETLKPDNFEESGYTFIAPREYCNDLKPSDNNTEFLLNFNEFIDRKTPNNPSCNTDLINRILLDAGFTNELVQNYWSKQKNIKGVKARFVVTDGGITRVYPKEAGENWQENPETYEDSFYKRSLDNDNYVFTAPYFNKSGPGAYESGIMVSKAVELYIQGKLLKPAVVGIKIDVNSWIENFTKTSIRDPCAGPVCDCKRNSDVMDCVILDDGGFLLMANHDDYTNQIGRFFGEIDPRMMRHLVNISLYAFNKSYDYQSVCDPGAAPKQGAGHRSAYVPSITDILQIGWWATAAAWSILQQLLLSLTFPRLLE
T1 sequence (P54290 945-1091 partner limits assumed): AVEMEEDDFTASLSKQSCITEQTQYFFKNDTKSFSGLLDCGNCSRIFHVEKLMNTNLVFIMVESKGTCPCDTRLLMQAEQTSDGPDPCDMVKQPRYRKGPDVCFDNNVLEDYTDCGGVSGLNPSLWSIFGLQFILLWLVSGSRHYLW

O=c1cccnn1CCCNCC1COc2ccccc2O1 (stereo not drawn) [Example 3 (or 12), 2-[3-(benzo[1,4]dioxan-2-yl-methylamino)-1-propyl]-3(2H)-pyridazinone hydrochloride]
Decrease in the systolic blood pressure ([1]; 6.25 mg/kg p.o.): -18%
Decrease in the systolic blood pressure ([1]; 12.5 mg/kg p.o.): -25%
Decrease in the systolic blood pressure ([1]; 25 mg/kg p.o.): -32%
effect on the following days; tachyphylaxia (in words) ([2]; 3 mg/kg i.p. twice daily for 14 days): not altered on the following days of treatment. No signs of tachyphylaxia were observed
maximum antihypertensive effect ([2]; 3 mg/kg i.p. twice daily, 10th day): 22%
maximum antihypertensive effect ([3]; 3.125 mg/kg p.o.): 16%
maximum antihypertensive effect ([3]; 12.5 mg/kg p.o.): 24%
antihypertensive effect in the 8th hour (in words) ([3]; 25 mg/kg p.o., 8th hour): significant even in the 8th hour
tachycardia ([3]; p.o.): 18%
time of disappearance of tachycardia (in words) ([3]; p.o.): disappeared in the 2nd to 3rd hours after the treatment
LD50 at 336 h [4, 14]: 97.8 mg/kg
LD50 at 336 h [4, 15]: 116 mg/kg
LD50 at 336 h [4, 16]: 400 mg/kg
LD50 at 336 h [4, 17]: 600 mg/kg
LD50 at 336 h [5, 14]: 160 mg/kg
LD50 at 336 h [5, 15]: 160 mg/kg
LD50 at 336 h [5, 16]: 200 mg/kg
LD50 at 336 h [5, 17]: 300 mg/kg
Inhibition of the stimulation ([6]; concentration 10^-7 mole): 0%
Inhibition of the stimulation ([6]; concentration 10^-8 mole): 0%
inhibition of the pressor effect of epinephrine (in words) [7]: significant inhibition
IC50 [8]: 500 nM
pA2 ([9]; negative logarithm of the molar antagonist concentration inhibiting the agonist to 50%, norepinephrine agonist, 5 min): 7.26
Slope of the curve ([9]; rabbit aorta, norepinephrine): -1.26
duration of hypotension ([10]; 0.5 mg/kg i.v.): 60 min
half-life of hypotension ([10]; 0.5 mg/kg i.v.): about 30 minutes
heart rate effect (in words) ([10]; 0.5 mg/kg i.v.): accompanied by bradycardia
hypotension ([10]; 0.5 mg/kg i.v.): 50%
maximum of the hypotension, intravenous versus intraduodenal ([10]; 1.0 mg/kg i.v. versus 1.25 mg/kg intraduodenal): nearly equal
decrease in the blood pressure ([10]; 1.25 mg/kg intraduodenal): 50%
duration of hypotension (detected up to) ([10]; 1.25 mg/kg intraduodenal): up to 2 hours
time of development of hypotension ([10]; 1.25 mg/kg intraduodenal): ≤ 15 min
heart rate effect (in words) ([10]; intraduodenal): significantly diminished
peripheral vasodilatory action in the renal vascular bed compared with prazosine (in words) [11]: reached or eventually surpassed the activity of prazosine
peripheral vasodilatory action in the renal vascular bed compared with verapamil (in words) [11]: stronger effects than verapamil
decrease in resistance of the renal artery ([11]; 1 mg/kg i.v.): about 40%
decrease in resistance of the renal artery ([11]; 1.0 mg/kg intraduodenal): about 40%
hypotension up to the 5th hour ([12]; SH rats, 6.25 mg/kg p.o., up to 5th hour): 16%
antihypertensive effect ([12]; SH rats, 6.25 mg/kg p.o., within one hour): 29%
dose dependence of level and duration of the antihypertensive effect (in words) ([12]; SH rats, 6.25, 12.5 or […] p.o.): increased by increasing the doses
heart rate alteration (in words) ([12]; SH rats, p.o.): no significant heart rate alteration
IC50 [13]: 400 nM

From patent US4826845A, “3(2H)-pyridazinones and pharmaceutical compositions thereof” (Richter Gedeon Vegyeszeti Gyar T.R., priority 1985, dated 1989)
